Results from ChEMBL document CHEMBL1671705, “Investigations into the role of the Plasmodium falciparum SERCA (PfATP6) L263E mutation in artemisinin action and resistance” (Antimicrob Agents Chemother, 2010).

These molecules were tested on Plasmodium falciparum (assay: Antimalarial activity against Plasmodium falciparum 7G8 harboring pfATP6 L263 mutant assessed as inhibition of [3H]hypoxanthine incorporation).
Assay type: functional, organism-based

Structure (SMILES)	IC50
C[C@@H]1CC[C@H]2[C@@H](C)C(=O)O[C@@H]3O[C@@]4(C)CC[C@@H]1[C@]32OO4 [ARTEMISININ]	20.7 nM
C[C@H]1[C@@H](O)O[C@@H]2O[C@@]3(C)CC[C@H]4[C@H](C)CC[C@@H]1[C@@]24OO3 [ARTENIMOL]	2.26 nM
C[C@H]1[C@H](OC(=O)CCC(=O)O)O[C@@H]2O[C@@]3(C)CC[C@H]4[C@H](C)CC[C@@H]1[C@@]24OO3 [ARTESUNATE]	13.5 nM

Each molecule was assayed on Plasmodium falciparum (assay: Antimalarial activity against Plasmodium falciparum 7G8 clone M3 assessed as inhibition of [3H]hypoxanthine incorporation).
Assay type: functional, organism-based

Structure (SMILES)	IC50
C[C@@H]1CC[C@H]2[C@@H](C)C(=O)O[C@@H]3O[C@@]4(C)CC[C@@H]1[C@]32OO4 [ARTEMISININ]	20.5 nM
C[C@H]1[C@@H](O)O[C@@H]2O[C@@]3(C)CC[C@H]4[C@H](C)CC[C@@H]1[C@@]24OO3 [ARTENIMOL]	2.41 nM
C[C@H]1[C@H](OC(=O)CCC(=O)O)O[C@@H]2O[C@@]3(C)CC[C@H]4[C@H](C)CC[C@@H]1[C@@]24OO3 [ARTESUNATE]	12.4 nM

The molecules below were run on Plasmodium falciparum (assay: Antimalarial activity against Plasmodium falciparum D10 clone M2 assessed as inhibition of [3H]hypoxanthine incorporation).
Assay type: functional, organism-based

Structure (SMILES)	IC50
C[C@@H]1CC[C@H]2[C@@H](C)C(=O)O[C@@H]3O[C@@]4(C)CC[C@@H]1[C@]32OO4 [ARTEMISININ]	55.8 nM
C[C@H]1[C@@H](O)O[C@@H]2O[C@@]3(C)CC[C@H]4[C@H](C)CC[C@@H]1[C@@]24OO3 [ARTENIMOL]	4.52 nM
C[C@H]1[C@H](OC(=O)CCC(=O)O)O[C@@H]2O[C@@]3(C)CC[C@H]4[C@H](C)CC[C@@H]1[C@@]24OO3 [ARTESUNATE]	27.7 nM

These molecules were tested on Plasmodium falciparum (assay: Antimalarial activity against Plasmodium falciparum D10 clone 1 harboring pfATP6 L263 mutant assessed as inhibition of [3H]hypoxanthine incorporation).
Assay type: functional, organism-based

Structure (SMILES)	IC50
C[C@@H]1CC[C@H]2[C@@H](C)C(=O)O[C@@H]3O[C@@]4(C)CC[C@@H]1[C@]32OO4 [ARTEMISININ]	42.8 nM
C[C@H]1[C@@H](O)O[C@@H]2O[C@@]3(C)CC[C@H]4[C@H](C)CC[C@@H]1[C@@]24OO3 [ARTENIMOL]	3.41 nM
C[C@H]1[C@H](OC(=O)CCC(=O)O)O[C@@H]2O[C@@]3(C)CC[C@H]4[C@H](C)CC[C@@H]1[C@@]24OO3 [ARTESUNATE]	23.6 nM

Each molecule was assayed on Plasmodium falciparum (assay: Antimalarial activity against Plasmodium falciparum 7G8 clone M1 harboring pfATP6 L263 mutant assessed as inhibition of [3H]hypoxanthine incorporation).
Assay type: functional, organism-based

Structure (SMILES)	IC50
C[C@@H]1CC[C@H]2[C@@H](C)C(=O)O[C@@H]3O[C@@]4(C)CC[C@@H]1[C@]32OO4 [ARTEMISININ]	22.3 nM
C[C@H]1[C@@H](O)O[C@@H]2O[C@@]3(C)CC[C@H]4[C@H](C)CC[C@@H]1[C@@]24OO3 [ARTENIMOL]	2.37 nM
C[C@H]1[C@H](OC(=O)CCC(=O)O)O[C@@H]2O[C@@]3(C)CC[C@H]4[C@H](C)CC[C@@H]1[C@@]24OO3 [ARTESUNATE]	14.9 nM

The molecules below were run on Plasmodium falciparum (assay: Antimalarial activity against Plasmodium falciparum D10 harboring pfATP6 L263 mutant assessed as inhibition of [3H]hypoxanthine incorporation).
Assay type: functional, organism-based

Structure (SMILES)	IC50
C[C@@H]1CC[C@H]2[C@@H](C)C(=O)O[C@@H]3O[C@@]4(C)CC[C@@H]1[C@]32OO4 [ARTEMISININ]	42.8 nM
C[C@H]1[C@@H](O)O[C@@H]2O[C@@]3(C)CC[C@H]4[C@H](C)CC[C@@H]1[C@@]24OO3 [ARTENIMOL]	3.41 nM
C[C@H]1[C@H](OC(=O)CCC(=O)O)O[C@@H]2O[C@@]3(C)CC[C@H]4[C@H](C)CC[C@@H]1[C@@]24OO3 [ARTESUNATE]	23.6 nM

These molecules were tested on Plasmodium falciparum (assay: Antimalarial activity against Plasmodium falciparum D10 clone M1 harboring pfATP6 L263 mutant assessed as inhibition of [3H]hypoxanthine incorporation).
Assay type: functional, organism-based

Structure (SMILES)	IC50
C[C@@H]1CC[C@H]2[C@@H](C)C(=O)O[C@@H]3O[C@@]4(C)CC[C@@H]1[C@]32OO4 [ARTEMISININ]	51.6 nM
C[C@H]1[C@@H](O)O[C@@H]2O[C@@]3(C)CC[C@H]4[C@H](C)CC[C@@H]1[C@@]24OO3 [ARTENIMOL]	3.96 nM
C[C@H]1[C@H](OC(=O)CCC(=O)O)O[C@@H]2O[C@@]3(C)CC[C@H]4[C@H](C)CC[C@@H]1[C@@]24OO3 [ARTESUNATE]	26.2 nM

The molecules below were run on Plasmodium falciparum (assay: Antimalarial activity against Plasmodium falciparum D10 clone M3 assessed as inhibition of [3H]hypoxanthine incorporation).
Assay type: functional, organism-based

Structure (SMILES)	IC50
C[C@@H]1CC[C@H]2[C@@H](C)C(=O)O[C@@H]3O[C@@]4(C)CC[C@@H]1[C@]32OO4 [ARTEMISININ]	36.8 nM
C[C@H]1[C@@H](O)O[C@@H]2O[C@@]3(C)CC[C@H]4[C@H](C)CC[C@@H]1[C@@]24OO3 [ARTENIMOL]	3.56 nM
C[C@H]1[C@H](OC(=O)CCC(=O)O)O[C@@H]2O[C@@]3(C)CC[C@H]4[C@H](C)CC[C@@H]1[C@@]24OO3 [ARTESUNATE]	24.3 nM

These molecules were tested on Plasmodium falciparum (assay: Antimalarial activity against Plasmodium falciparum 7G8 clone 1 assessed as inhibition of [3H]hypoxanthine incorporation).
Assay type: functional, organism-based

Structure (SMILES)	IC50
C[C@@H]1CC[C@H]2[C@@H](C)C(=O)O[C@@H]3O[C@@]4(C)CC[C@@H]1[C@]32OO4 [ARTEMISININ]	20.6 nM
C[C@H]1[C@@H](O)O[C@@H]2O[C@@]3(C)CC[C@H]4[C@H](C)CC[C@@H]1[C@@]24OO3 [ARTENIMOL]	2.01 nM
C[C@H]1[C@H](OC(=O)CCC(=O)O)O[C@@H]2O[C@@]3(C)CC[C@H]4[C@H](C)CC[C@@H]1[C@@]24OO3 [ARTESUNATE]	14.2 nM

What follows are molecules tested on Plasmodium falciparum (assay: Antimalarial activity against Plasmodium falciparum D10 harboring pfATP6 263E mutant assessed as inhibition of [3H]hypoxanthine incorporation).
Assay type: functional, organism-based

Structure (SMILES)	IC50
C[C@@H]1CC[C@H]2[C@@H](C)C(=O)O[C@@H]3O[C@@]4(C)CC[C@@H]1[C@]32OO4 [ARTEMISININ]	51.6 nM
C[C@H]1[C@@H](O)O[C@@H]2O[C@@]3(C)CC[C@H]4[C@H](C)CC[C@@H]1[C@@]24OO3 [ARTENIMOL]	3.96 nM
C[C@H]1[C@H](OC(=O)CCC(=O)O)O[C@@H]2O[C@@]3(C)CC[C@H]4[C@H](C)CC[C@@H]1[C@@]24OO3 [ARTESUNATE]	26.2 nM

Each molecule was assayed on Plasmodium falciparum (assay: Antimalarial activity against Plasmodium falciparum 7G8 clone 2 assessed as inhibition of [3H]hypoxanthine incorporation).
Assay type: functional, organism-based

Structure (SMILES)	IC50
C[C@@H]1CC[C@H]2[C@@H](C)C(=O)O[C@@H]3O[C@@]4(C)CC[C@@H]1[C@]32OO4 [ARTEMISININ]	20.9 nM
C[C@H]1[C@@H](O)O[C@@H]2O[C@@]3(C)CC[C@H]4[C@H](C)CC[C@@H]1[C@@]24OO3 [ARTENIMOL]	2.76 nM
C[C@H]1[C@H](OC(=O)CCC(=O)O)O[C@@H]2O[C@@]3(C)CC[C@H]4[C@H](C)CC[C@@H]1[C@@]24OO3 [ARTESUNATE]	12.1 nM

The molecules below were run on Plasmodium falciparum (assay: Antimalarial activity against Plasmodium falciparum D10 clone M1 assessed as inhibition of [3H]hypoxanthine incorporation).
Assay type: functional, organism-based

Structure (SMILES)	IC50
C[C@@H]1CC[C@H]2[C@@H](C)C(=O)O[C@@H]3O[C@@]4(C)CC[C@@H]1[C@]32OO4 [ARTEMISININ]	62.3 nM
C[C@H]1[C@@H](O)O[C@@H]2O[C@@]3(C)CC[C@H]4[C@H](C)CC[C@@H]1[C@@]24OO3 [ARTENIMOL]	3.79 nM
C[C@H]1[C@H](OC(=O)CCC(=O)O)O[C@@H]2O[C@@]3(C)CC[C@H]4[C@H](C)CC[C@@H]1[C@@]24OO3 [ARTESUNATE]	26.5 nM

These molecules were tested on Plasmodium falciparum (assay: Antimalarial activity against Plasmodium falciparum 7G8 clone 1 harboring pfATP6 L263 mutant assessed as inhibition of [3H]hypoxanthine incorporation).
Assay type: functional, organism-based

Structure (SMILES)	IC50
C[C@@H]1CC[C@H]2[C@@H](C)C(=O)O[C@@H]3O[C@@]4(C)CC[C@@H]1[C@]32OO4 [ARTEMISININ]	20.7 nM
C[C@H]1[C@@H](O)O[C@@H]2O[C@@]3(C)CC[C@H]4[C@H](C)CC[C@@H]1[C@@]24OO3 [ARTENIMOL]	2.26 nM
C[C@H]1[C@H](OC(=O)CCC(=O)O)O[C@@H]2O[C@@]3(C)CC[C@H]4[C@H](C)CC[C@@H]1[C@@]24OO3 [ARTESUNATE]	13.5 nM

The molecules below were run on Plasmodium falciparum (assay: Antimalarial activity against Plasmodium falciparum D10 clone 1 assessed as inhibition of [3H]hypoxanthine incorporation).
Assay type: functional, organism-based

Structure (SMILES)	IC50
C[C@@H]1CC[C@H]2[C@@H](C)C(=O)O[C@@H]3O[C@@]4(C)CC[C@@H]1[C@]32OO4 [ARTEMISININ]	47.6 nM
C[C@H]1[C@@H](O)O[C@@H]2O[C@@]3(C)CC[C@H]4[C@H](C)CC[C@@H]1[C@@]24OO3 [ARTENIMOL]	3.42 nM
C[C@H]1[C@H](OC(=O)CCC(=O)O)O[C@@H]2O[C@@]3(C)CC[C@H]4[C@H](C)CC[C@@H]1[C@@]24OO3 [ARTESUNATE]	26.6 nM

These molecules were tested on Plasmodium falciparum (assay: Antimalarial activity against Plasmodium falciparum 7G8 clone M1 assessed as inhibition of [3H]hypoxanthine incorporation).
Assay type: functional, organism-based

Structure (SMILES)	IC50
C[C@@H]1CC[C@H]2[C@@H](C)C(=O)O[C@@H]3O[C@@]4(C)CC[C@@H]1[C@]32OO4 [ARTEMISININ]	25.2 nM
C[C@H]1[C@@H](O)O[C@@H]2O[C@@]3(C)CC[C@H]4[C@H](C)CC[C@@H]1[C@@]24OO3 [ARTENIMOL]	2.58 nM
C[C@H]1[C@H](OC(=O)CCC(=O)O)O[C@@H]2O[C@@]3(C)CC[C@H]4[C@H](C)CC[C@@H]1[C@@]24OO3 [ARTESUNATE]	16 nM

Each molecule was assayed on Plasmodium falciparum (assay: Antimalarial activity against Plasmodium falciparum 7G8 clone M2 assessed as inhibition of [3H]hypoxanthine incorporation).
Assay type: functional, organism-based

Structure (SMILES)	IC50
C[C@@H]1CC[C@H]2[C@@H](C)C(=O)O[C@@H]3O[C@@]4(C)CC[C@@H]1[C@]32OO4 [ARTEMISININ]	19.7 nM
C[C@H]1[C@@H](O)O[C@@H]2O[C@@]3(C)CC[C@H]4[C@H](C)CC[C@@H]1[C@@]24OO3 [ARTENIMOL]	2.19 nM
C[C@H]1[C@H](OC(=O)CCC(=O)O)O[C@@H]2O[C@@]3(C)CC[C@H]4[C@H](C)CC[C@@H]1[C@@]24OO3 [ARTESUNATE]	13.3 nM

What follows are molecules tested on Plasmodium falciparum (assay: Antimalarial activity against Plasmodium falciparum 7G8 clone M4 assessed as inhibition of [3H]hypoxanthine incorporation).
Assay type: functional, organism-based

Structure (SMILES)	IC50
C[C@@H]1CC[C@H]2[C@@H](C)C(=O)O[C@@H]3O[C@@]4(C)CC[C@@H]1[C@]32OO4 [ARTEMISININ]	25.3 nM
C[C@H]1[C@@H](O)O[C@@H]2O[C@@]3(C)CC[C@H]4[C@H](C)CC[C@@H]1[C@@]24OO3 [ARTENIMOL]	2.25 nM
C[C@H]1[C@H](OC(=O)CCC(=O)O)O[C@@H]2O[C@@]3(C)CC[C@H]4[C@H](C)CC[C@@H]1[C@@]24OO3 [ARTESUNATE]	21.3 nM

The molecules below were run on Plasmodium falciparum (assay: Antimalarial activity against Plasmodium falciparum 7G8 harboring pfATP6 263E mutant assessed as inhibition of [3H]hypoxanthine incorporation).
Assay type: functional, organism-based

Structure (SMILES)	IC50
C[C@@H]1CC[C@H]2[C@@H](C)C(=O)O[C@@H]3O[C@@]4(C)CC[C@@H]1[C@]32OO4 [ARTEMISININ]	22.3 nM
C[C@H]1[C@@H](O)O[C@@H]2O[C@@]3(C)CC[C@H]4[C@H](C)CC[C@@H]1[C@@]24OO3 [ARTENIMOL]	1.3 nM
C[C@H]1[C@H](OC(=O)CCC(=O)O)O[C@@H]2O[C@@]3(C)CC[C@H]4[C@H](C)CC[C@@H]1[C@@]24OO3 [ARTESUNATE]	14.9 nM

These molecules were tested on Plasmodium falciparum (assay: Antimalarial activity against Plasmodium falciparum D10 clone 2 assessed as inhibition of [3H]hypoxanthine incorporation).
Assay type: functional, organism-based

Structure (SMILES)	IC50
C[C@@H]1CC[C@H]2[C@@H](C)C(=O)O[C@@H]3O[C@@]4(C)CC[C@@H]1[C@]32OO4 [ARTEMISININ]	34.3 nM
C[C@H]1[C@@H](O)O[C@@H]2O[C@@]3(C)CC[C@H]4[C@H](C)CC[C@@H]1[C@@]24OO3 [ARTENIMOL]	3.38 nM
C[C@H]1[C@H](OC(=O)CCC(=O)O)O[C@@H]2O[C@@]3(C)CC[C@H]4[C@H](C)CC[C@@H]1[C@@]24OO3 [ARTESUNATE]	16.8 nM
